According to patent US20250281464A1, “TREATMENT OF PATHOGENIC NEISSERIA SP. INFECTION WITH TRIAZOLE ANTIFUNGAL AGENTS” (Virginia Tech Intellectual Properties, Inc., priority 2022, published 2025):
Where two headings read alike, the source gives them in different places.

Columns and labels:
[1] = system: N. gonorrhoeae isolates; assay: MIC against panel of N. gonorrhoeae clinical isolates; assay type: cell-based, Neisseria gonorrhoeae; details: for MIC50: read-out: MIC50; for MIC90: read-out: MIC90
[2] = system: resistant N. gonorrhoeae isolates; assay: MIC against resistant N. gonorrhoeae isolates by agar dilution; assay type: cell-based, Neisseria gonorrhoeae
[3] = system: L. crispatus; assay: MIC against commensal vaginal Lactobacillus strains; assay type: cell-based, Lactobacillus crispatus; details: for MIC: Lactobacillus crispatus
Excerpt: (§1) N. gonorrhoeae pathogenesis greatly depends on colonization of the reproductive tract. One of the natural barriers of such colonization is an intact healthy microbiome. Species of lactobacilli present in the genitourinary tract play a significant role in hindering colonization by Neisseria(1).
(§2) A healthy vaginal microbiome that is dominated by Lactobacillus spp. is less susceptible to N. gonorrhoeae infection and other sexually transmitted diseases (STDs). […] We tested the activity of azoles against important members of healthy vaginal microbiota that inhibit N. gonorrhoeae colonization.

[4] = system: L. gasseri; assay: as above; assay type: cell-based, Lactobacillus gasseri; details: for MIC: Lactobacillus gasseri
Excerpt: as §1, §2

[5] = system: L. jensenii; assay: as above; assay type: cell-based, Lactobacillus jensenii; details: for MIC: Lactobacillus jensenii
Excerpt: as §1, §2

[6] = system: L. johnsonii; assay: as above; assay type: cell-based, Lactobacillus johnsonii
Excerpt: as §1, §2

[7] = system: commensal vaginal lactobacilli strains; assay: MIC against all commensal vaginal Lactobacillus strains tested; assay type: cell-based, Lactobacillus spp.; details: Lactobacillus; all strains of lactobacilli (Example 1 text); read-out: MIC
Excerpt: as §1, §2

[8] = system: N. gonorrhoeae; assay: Post-antibiotic effect (PAE) against N. gonorrhoeae; assay type: cell-based, Neisseria gonorrhoeae; details: 1 h exposure at 10×MIC
Excerpt: Determining the PAE of a new antimicrobial is an important step for dosing and has clinical importance.

[9] = MIC against normal gut microbiota; assay type: cell-based
Excerpt: (§3) Disrupting the intestinal microbiota using broad-spectrum antimicrobial therapy increases the susceptibility of hosts to C. difficile colonization.

[10] = system: Bacteroides dorei; assay: MIC against normal gut microbiota; assay type: cell-based; details: Bacteroides dorei (2 strains)
Excerpt: as §3

[11] = system: Bacteroides fragilis; assay: MIC against normal gut microbiota; assay type: cell-based; details: Bacteroides fragilis (4 strains)
Excerpt: as §3

[12] = system: Bifidobacterium angulatum; assay: MIC against normal gut microbiota; assay type: cell-based; details: Bifidobacterium angulatum (1 strain)
Excerpt: as §3

[13] = system: Enterococcus faecalis; assay: MIC against normal gut microbiota; assay type: cell-based; details: Enterococcus faecalis (1 strain)
Excerpt: as §3

[14] = system: Enterococcus faecium; assay: MIC against normal gut microbiota; assay type: cell-based; details: Enterococcus faecium (1 strain)
Excerpt: as §3

[15] = system: Escherichia coli; assay: MIC against normal gut microbiota; assay type: cell-based; details: Escherichia coli (1 strain)
Excerpt: as §3

[16] = system: Lactobacillus brevis; assay: MIC against normal gut microbiota; assay type: cell-based; details: Lactobacillus brevis (1 strain)
Excerpt: as §3

[17] = system: Lactobacillus casei; assay: MIC against normal gut microbiota; assay type: cell-based; details: Lactobacillus casei (1 strain)
Excerpt: as §3

[18] = system: Lactobacillus rhamnosus; assay: MIC against normal gut microbiota; assay type: cell-based; details: Lactobacillus rhamnosus (1 strain)
Excerpt: as §3

[19] = system: Staphylococcus aureus; assay: MIC against normal gut microbiota; assay type: cell-based; details: Staphylococcus aureus (1 strain)
Excerpt: as §3

[20] = system: N. meingitidis; assay: MIC against Neisseria spp.; assay type: cell-based, Neisseria meningitidis; details: N. meingitidis (5 strains)
[21] = system: N. flavescens; assay: MIC against Neisseria spp.; assay type: cell-based; details: N. flavescens (1 strain)
Excerpt: (§4) Intrigued by the specificity and potent activity of azoles against N. gonorrhoeae, we evaluated the extent of the azoles' antibacterial activity against other Neisseria species (Table 8).

[22] = system: N. lactamica; assay: MIC against Neisseria spp.; assay type: cell-based; details: N. lactamica (1 strain)
Excerpt: as §4

[23] = system: N. mucosa; assay: MIC against Neisseria spp.; assay type: cell-based; details: N. mucosa (1 strain)
Excerpt: as §4

[24] = system: N. gonorrhoeae; assay: Drug library screen against N. gonorrhoeae; assay type: cell-based, Neisseria gonorrhoeae; details: Johns Hopkins Clinical Compounds Library, MCE FDA-Approved Drug Library, Pharmakon library; killing in clinical range
Excerpt: To identify drugs capable of killing Neisseria gonorrhoeae, the Johns Hopkins Clinical Compounds Library (1514), the MCE FDA-Approved Drug Library (2441), and the Pharmakon library (1600) were screened against N. gonorrhoeae. Positive hits that are capable of killing Neisseria gonorrhoeae in clinical range were identified (itraconazole, ravuconazole and isavuconazole).

[25] = from single dose; cited from earlier work
[26] = Neisseria gonorrhoeae, Table 1, 104 N. gonorrhoeae isolates
[27] = Neisseria gonorrhoeae, Table 3, 103 N. gonorrhoeae isolates with different resistance profiles
[28] = Neisseria gonorrhoeae, panel of 84 N. gonorrhoeae clinical isolates

C[C@@H](c1nc(-c2ccc(C#N)cc2)cs1)[C@](O)(Cn1cncn1)c1ccc(F)cc1F [Ravuconazole]
0.06 µg/mL: MIC90 [1, 26] | MIC90 [1, 27] | MIC90 [1, 28] | MIC ([2]; strain CDC-179, agar dilution)
0.125 µg/mL: MIC Range [21] | MIC Range [23]
0.002 to 0.25 µg/mL: MIC Range ([1]; Table 3, 103 N. gonorrhoeae isolates with different resistance profiles)
0.25 µg/mL: MIC ([1]; Neisseria gonorrhoeae, 103 N. gonorrhoeae isolates, read-out: highest MIC value) | MIC ([2]; strain CDC-174, agar dilution) | MIC ([2]; strain CDC-181, agar dilution) | MIC ([2]; strain WHO-L, agar dilution) | MIC ([2]; strain WHO-X, agar dilution) | MIC ([2]; strain WHO-Y, agar dilution) | MIC ([2]; strain WHO-Z, agar dilution)
>256 µg/mL: MIC Range ([9]; Bacteroides adolescentis (2 strains)) | MIC Range ([9]; Bacteroides breve (2 strains)) | MIC Range ([9]; Bacteroides longum (2 strains)) | MIC Range [10] | MIC Range [11] | MIC Range [12] | MIC Range [13] | MIC Range [14] | MIC Range [15] | MIC Range [16] | MIC Range [17] | MIC Range [18] | MIC Range [19]
Positive hits: screening outcome [24]
12 h: PAE ([8]; strain FA 1090)
> 256 µg/mL: MIC ([3]; L. crispatus HM-103) | MIC ([3]; L. crispatus HM-371) | MIC ([3]; L. crispatus HM-638) | MIC ([4]; L. gasseri HM-407) | MIC ([4]; L. gasseri HM-642) | MIC ([4]; L. gasseri HM-644) | MIC ([4]; L. gasseri HM-647) | MIC ([5]; L. jensenii HM-105) | MIC ([5]; L. jensenii HM-372) | MIC ([5]; L. jensenii HM-374) | MIC ([5]; L. jensenii HM-639) | MIC ([5]; L. jensenii HM-640) | MIC ([5]; L. jensenii HM-645) | MIC ([5]; L. jensenii HM-646) | MIC ([6]; Lactobacillus johnsonii, L. johnsonii HM-643) | MIC [7]
16 h: PAE ([8]; strain WHO Y)
≥256 µg/mL: MIC Range ([3]; Table 6, L. crispatus (3 strains)) | MIC Range ([4]; Table 6, L. gasseri (4 strains)) | MIC Range ([5]; Table 6, L. jensenii (7 strains)) | MIC Range ([6]; Table 6, L. johsonii (2 strains))
up to 8 days: half-life [25]
0.004 to 0.008 µg/mL: MIC Range [20]
≥ 125 fold: fold more potent antimicrobial activity than isavuconazole ([1]; from Table 3 and Table 8)
0.03 µg/mL: MIC50 [1, 26] | MIC50 [1, 27] | MIC50 [1, 28] | MIC Range [22]
>16 h: PAE ([8]; strain WHO P)
